Columns and labels:
[1] = test system: gene expression (stress response, apoptosis, cell cycle genes); test: RT-qPCR differential gene expression; format: cell-based, human; settings: vs. Control, 6 h after treatment
Procedure: (§1) Specific assays with 1[C,NH] complex were performed according to manufacturer’s instructions using the following reagents from Molecular Probes (Thermo Fisher Scientific): Measurements of ROS: Dihydroethidium (DHE, D11347) and 2′, 7′-dichlorodihydrofluorescein diacetate (H2DCFDA, D399); detection of caspases 3/7: CellEvent Caspase-3/7 Green Detection Reagent (C10423); Cell viability: Live/Dead Cell Imaging Kit (R37601); Analysis of cytosolic calcium concentration: Fluo3/AM (F23915); Analysis of MMP: Tetramethylrhodamine methyl ester perchlorate (TMRM, T668). RT-qPCR’s assays were performed with the following primers/probes from Thermo Fisher Scientific: DCP1A (Hs00218198-m1), FOSB (Hs00171851-m1), EGR1(Hs0015928-m1), ATF3 (Hs00231069-m1), DDIT3 (Hs00358796-g1), PP1R15A (Hs00169585-m1), CHAC1(Hs00225520-m1), MIR9-1 (Hs04231512-s1), ATP1B2 (Hs00155922-m1), BBC3 (Hs00248075-m1), BCL2L11 (Hs00798019-s1), PMAIP1 (Hs00560402-m1), SKP2 (Hs01021864-m1) and HIST1H1B (Hs00271207-s1). RT-qPCR experiments were performed as described.

[2] = test system: plasmid DNA (pUC18); test: Agarose gel electrophoresis of plasmid DNA; format: binding, Escherichia coli; settings: pUC18 20 µM, overnight 37 °C
Procedure: Agarose Gel electrophoresis of plasmid DNA Overnight cultures of the strain DH5α of Escherichia coli were isolated with the Quiagen DNA purification kit. Then, 20 µM (in base pairs) of plasmid DNA (pUC18) was incubated with different concentrations of the synthesized iridium complexes overnight at 37 °C. Afterwards, 2 μL of loading buffer were added to 10 μL of the incubated samples and loaded onto a 1% agarose gel. Electrophoresis was run in TAE 1× at 6.5 V/cm during 2.5 h. Then, the agarose gel was stained with ethidium bromide 1 μg/mL and visualized with a Gel Doc XR+ Imaging System (Bio-Rad, Hercules, CA, USA).

[3] = test system: A549 cells; test: Mitochondrial membrane potential (TMRM); format: cell-based, human; settings: 16 µM, TMRM 50 nM
Procedure: as §1

[4] = Drug uptake by cells (ICP-MS); format: cell-based; settings: 16 μM, 400,000 cells, 4 h
Procedure: 1[C,NH] reduced the lung tumor burden. Prior the performance of in vivo studies, the drug uptake was determined. The amount of 1[C,NH] entering the cell was estimated after administration of 16 μM of 1[C,NH] to 400,000 cells. The intracellular iridium content was assessed after 4 h by ICP-MS, and the percentage of drug taken up by cells was 1.7%. Then, acute toxicity and bio distribution of 1[C,NH] was studied in healthy mice (BALB/c). […] Antitumor efficacy was studied using an orthotopic model of lung cancer in nude mice (Figure 8B). A549-luc cells (A549 cells marked with luciferase) were used to induce the tumor and 20 days after the injection of cells, we proceeded to the administration of 4 doses (0.9 mg/kg) of 1[C,NH] on alternate days. […] However, we cannot exclude the appearance of toxic effects after repeated administrations over longer periods of time. […] To differentiate the effect of 1[C,NH] on the primary tumor and on the affected nodes, at day 37, the animals were sacrificed, and luciferase activity, as a marker on the presence of tumor cells, was measured. […] Moreover, lung mice were stained with a monoclonal antibody against a human cytokeratin (only A549 tumor cells of human origin were stained) (Figure 8D). […] In addition, other factors influence the efficacy of a drug on the primary tumor and not on the metastasis, cell-cell interactions, matrix in the nodes, etc. […]

[5] = test system: BALB/c mice; test: Acute toxicity in healthy mice; format: in vivo, mouse; settings: dissolved in PBS
Description: Female mice weighing approximately 20–25 g, 8–12 weeks were obtained from Janvier Laboratories (Le Genest-Saint-Isle, France). All mice received a standard laboratory diet and water ad libitum. The use of immunosuppressed animals is always a limitation since they are not a true reflection of an animal with a functional immune system and, therefore, can affect both the toxicological response and the biodistribution of a compound, but they are essential to be able to implant human tumor cells, otherwise the tumor would be rejected by the immune system. Therefore, in order to analyze the biodistribution, toxicology and efficacy of a compound against a tumor, it is necessary to use different animals. Animal studies were approved by the Bioethics Committee of the Universidade de Santiago de Compostela and were done in compliance with the principles of laboratory animal care according to Spanish national law (RD 53/2013).

[6] = test system: ROS (superoxide anion, hydrogen peroxide); test: ROS generation (DHE and H2DCFDA, flow cytometry); format: cell-based; settings: after 3 h
Procedure: as §1

[7] = test system: SW480 cells; test: Ir cellular uptake by ICP-MS; format: cell-based, human; settings: 2 µM, 24 h
Procedure: Quantification of Ir cellular uptake by ICP-MS (Inductively coupled plasma-mass spectrometry). Metal accumulation studies were conducted on the SW480 cell line. In these experiments, 3 × 10^5 cells were seeded in 12.5 cm^2 tissue culture flasks in drug-free medium and incubated for 24h at 37 °C in a 5% CO2 humidified atmosphere. Then, cells were treated with 2 µM of the iridium complexes. After 24 h of exposure, cells were washed twice with PBS and harvested. The pellets were resuspended in PBS, and 10 µL were used to count cells. Then, each resuspended pellet was digested in 65% HNO3 for 24 h. Finally, solutions were analyzed in a 7700 ICP-MS (Agilent Technologies, Palo Alto, CA, USA). Data is reported as the mean the standard deviation (n = 3).

Row | SMILES | ATF3 RT-qPCR (2-ΔΔCt) [1] | ATP1B2 RT-qPCR (2-ΔΔCt) [1] | BBC3 RT-qPCR (2-ΔΔCt) [1] | BCL2L11 RT-qPCR (2-ΔΔCt) [1] | CHAC1 RT-qPCR (2-ΔΔCt) [1] | DDIT3 RT-qPCR (2-ΔΔCt) [1] | EGR1 RT-qPCR (2-ΔΔCt) [1] | FOSB RT-qPCR (2-ΔΔCt) [1] | HIST1H1B RT-qPCR (2-ΔΔCt) [1] | MIR9-1 RT-qPCR (2-ΔΔCt) [1] | PMAIP1 RT-qPCR (2-ΔΔCt) [1] | PPP1R15A RT-qPCR (2-ΔΔCt) [1] | SKP2 RT-qPCR (2-ΔΔCt) [1] | Migration pattern of plasmid DNA [2] | Mitochondrial membrane potential (MMP) [3] | Percentage of drug taken up by cells [4] [%] | Maximum tolerated dose [5] [mg/kg] | DHE fluorescence (superoxide anion levels) [6] | Metal accumulation in SW480 cells [7]
1 | Cc1c(C)c(C)[c-](C)c1C.[Cl][Ir]1[c]2ccccc2-c2[nH]c3ccccc3[n+]21 [1[C,NH], [(η^5-Cp*)IrCl(κ^2-N,C-pbim)]] | > 100 | 19.5 | 3.7 | 3.6 | 3.5 | 7.8 | > 100 | > 100 | 0.1 | > 100 | 3.4 | 14.8 | 0.3 | unable to interact with DNA | quick and deep dissipation of MMP | 1.7 | 1.3 | increased | 
2 | Cc1c(C)c(C)[c-](C)c1C.[Cl][Ir]1[O]c2ccccc2-c2sc3ccccc3[n+]21 [8[CO,S], [(η^5-Cp*)IrCl(κ^2-O,N-hpbtz)]] |  |  |  |  |  |  |  |  |  |  |  |  |  |  |  |  |  | increased | highest accumulation
3 | Cc1c(C)c(C)[c-](C)c1C.Cn1c2[n+](c3ccccc31)[Ir]([Cl])[c]1ccccc1-2 [2[C,NMe], [(η^5-Cp*)IrCl(κ^2-N,C-NMepbim)]] |  |  |  |  |  |  |  |  |  |  |  |  |  | unable to interact with DNA |  |  |  | increased | 

— PMC9818021, “Targets, Mechanisms and Cytotoxicity of Half-Sandwich Ir(III) Complexes Are Modulated by Structural Modifications on the Benzazole Ancillary Ligand” (Cancers, 2022)
